Measured values published in patent publication US20230174523A1, “BENZENESULFONAMIDE DERIVATIVES AS TRAP1 MODULATORS AND USES THEREOF” (Amathus Therapeutics, Inc., priority 2020, published 2023).

Target: T1, TRAP1 enzyme (Homo sapiens, UniProt Q12931)
T1 sequence (Q12931 60-704): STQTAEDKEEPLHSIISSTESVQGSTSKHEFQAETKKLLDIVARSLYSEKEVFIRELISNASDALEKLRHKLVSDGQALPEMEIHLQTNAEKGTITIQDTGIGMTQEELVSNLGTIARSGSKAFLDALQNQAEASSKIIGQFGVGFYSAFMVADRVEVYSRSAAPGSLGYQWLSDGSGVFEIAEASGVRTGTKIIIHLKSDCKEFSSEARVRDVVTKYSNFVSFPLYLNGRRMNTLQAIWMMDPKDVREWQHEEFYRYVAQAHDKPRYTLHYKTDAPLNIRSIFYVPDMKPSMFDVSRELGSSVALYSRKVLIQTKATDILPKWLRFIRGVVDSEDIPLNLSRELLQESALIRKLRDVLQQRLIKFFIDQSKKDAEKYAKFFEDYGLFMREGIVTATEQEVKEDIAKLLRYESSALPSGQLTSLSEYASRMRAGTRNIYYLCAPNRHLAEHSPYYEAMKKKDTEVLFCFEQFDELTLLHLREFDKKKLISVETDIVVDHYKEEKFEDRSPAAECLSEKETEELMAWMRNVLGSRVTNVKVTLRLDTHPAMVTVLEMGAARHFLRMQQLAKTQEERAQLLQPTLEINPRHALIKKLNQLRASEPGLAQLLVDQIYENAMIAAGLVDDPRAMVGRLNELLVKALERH
Test: Malachite green phosphate assay of TRAP1 ATPase activity
Type: biochemical
Details: for EC50: TRAP1 ATPase activation, 150 nM Trap1, 20 μM ATP, geometric mean, read-out: Malachite Green Fluor DRC: GeoMean EC50; for Emax: read-out: Malachite Green Fluor DRC: Mean Emax
How it was run: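 Compound (0.78 μM-100 μM) preincubated with 150 nM TRAP1 in 50 mM HEPES pH 7.5, 20 mM KCl, 4 mM MgCl2, 0.05% BSA, 30 min at 37 °C; reaction started with 20 μM ATP, 180 min at 37 °C. Phosphate quantified by malachite green against a standard curve; Emax and EC50 from sigmoidal fits of activation.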

Row | SMILES | EC50 [µM] | Emax [%]
1 | Cc1ccc(NS(=O)(=O)c2cc(NC(=O)c3ncc(-c4ccccc4)o3)ccc2CC(=O)O)cc1 [Compound 541] | 20 to 100 | 200 to 300
2 | COc1ccc(NC(=O)c2cnc[nH]2)cc1S(=O)(=O)N(CCOCCOCCOCCN)c1ccc(Br)cc1 [Compound 546] | 20 to 100 | 160 to 199
3 | Cc1ncoc1C(=O)Nc1cccc(S(=O)(=O)N(c2ccc(Cl)cc2)C(C)C)c1 [Compound 551] | 10 to 20 | 160 to 199
4 | CCOC(=O)Cc1ccc(NC(=O)c2ncc(-c3ccccc3)o2)cc1S(=O)(=O)Nc1ccc(Cl)cc1 [Compound 558] | 10 to 20 | 160 to 199
5 | COc1ccc(NC(=O)c2nc(-c3ccccc3)ccc2C)cc1S(=O)(=O)Nc1ccc(Cl)cc1 [Compound 565, N-(3-(N-(4-chlorophenyl)sulfamoyl)-4-methoxyphenyl)-3-methyl-6-phenylpicolinamide] | 20 to 100 | 123 to 159
6 | CCc1ccc(NC(=O)c2ncn(C)n2)cc1S(=O)(=O)Nc1ccc(Cl)cc1 [Compound 575] | 20 to 100 | 160 to 199
7 | CC(C)c1ccc(NC(=O)c2cnc(-c3ccccc3)o2)cc1S(=O)(=O)Nc1ccc(Cl)cc1 [Compound 576] | 10 to 20 | 160 to 199
8 | COc1ccc(NC(=S)c2ncc(-c3ccccc3)o2)cc1S(=O)(=O)Nc1ccc(Cl)cc1 [Compound 583, N-(3-(N-(4-chlorophenyl)sulfamoyl)-4-methoxyphenyl)-5-phenyloxazole-2-carbothioamide] | 10 to 20 | 160 to 199
9 | C=C(C)c1ncoc1C(=O)Nc1ccc(OC)c(S(=O)(=O)Nc2ccc(Cl)cc2)c1 [Compound 593] | 20 to 100 | 200 to 300
10 | CCc1ccc(NC(=O)c2nnc(-c3ccccc3)[nH]2)cc1S(=O)(=O)Nc1ccc(Cl)cc1 [Compound 595] | 10 to 20 | 200 to 300
11 | COc1ccc(NC(=S)c2ncco2)cc1S(=O)(=O)Nc1ccc(Cl)cc1 [Compound 598, N-(3-(N-(4-chlorophenyl)sulfamoyl)-4-methoxyphenyl) oxazole-2-carbothioamide] | 20 to 100 | 200 to 300
12 | COc1ccc(NC(=O)c2cnc(-c3ccccc3)[nH]2)cc1S(=O)(=O)N(CCOCCOCCN)c1ccc(Br)cc1 [Compound 637] | 20 to 100 | > 300
13 | COc1ccc(NC(=O)c2cnc(-c3ccccc3)o2)cc1S(=O)(=O)Nc1ccc(C(F)(F)F)cc1 [Compound 650] | 20 to 100 | 200 to 300
14 | COc1ccc(NC(=O)c2cnc(-c3ccccc3)o2)cc1S(=O)(=O)Nc1c(Cl)cccc1Cl [Compound 662] | 10 to 20 | 160 to 199
15 | O=C(Nc1ccc(F)c(S(=O)(=O)Nc2ccc(Cl)cc2)c1)c1cc(Cl)ncc1C(F)(F)F [Compound 743] | 20 to 100 | 200 to 300
16 | COc1ccc(NC(=O)c2ccc3cnccc3n2)cc1S(=O)(=O)Nc1c(C)cccc1C [Compound 1047] | 10 to 20 | 160 to 199
17 | COc1ccc(NC(=O)c2ccccc2N2CCOCC2)cc1S(=O)(=O)Nc1c(C)cccc1C [Compound 1048] | 10 to 20 | 160 to 199

Next, values leading:

Row | EC50 [µM] | Emax [%] | SMILES
18 | 10 to 20 | 200 to 300 | COc1ccc(NC(=O)c2nc(Br)ccc2C)cc1S(=O)(=O)Nc1ccc(Cl)cc1 [Compound 537]
19 | < 10 | 123 to 159 | C=C(C)c1nc(C(=O)Nc2ccc(OC)c(S(=O)(=O)Nc3ccc(Cl)cc3)c2)oc1-c1ccccc1 [Compound 545]
20 | < 10 | 123 to 159 | CCc1ccc(NC(=O)c2ncc(-c3ccccc3)o2)cc1S(=O)(=O)Nc1ccc(Cl)nc1 [Compound 548]
21 | < 10 | 123 to 159 | CC(C)c1ccc(NC(=O)c2ncc(-c3ccccc3)o2)cc1S(=O)(=O)Nc1ccc(Cl)cc1 [Compound 580]
22 | < 10 | 123 to 159 | CCOC(=O)/C=C/c1ccc(NC(=O)c2ncc(-c3ccccc3)o2)cc1S(=O)(=O)Nc1ccc(Cl)cc1 [Compound 634]
23 | < 10 | 160 to 199 | O=C(O)/C=C/c1ccc(NC(=O)c2ncc(-c3ccccc3)o2)cc1S(=O)(=O)Nc1ccc(Cl)cc1 [Compound 648]
24 | < 10 | 160 to 199 | O=C(Nc1ccc(OC(F)(F)F)c(S(=O)(=O)Nc2c(Cl)cccc2Cl)c1)c1cnc(-c2ccccc2)o1 [Compound 655]
25 | < 10 | 160 to 199 | COc1ccc(NC(=O)c2cccn2-c2ccccc2)cc1S(=O)(=O)Nc1c(C)cccc1C [Compound 1042]
26 | < 10 | 160 to 199 | COc1ccc(NC(=O)c2cc3sccc3s2)cc1S(=O)(=O)Nc1c(C)cccc1C [Compound 1051]
